Source: patent publication US20100130736A1, “METHODS OF CREATING AN INDEX” (priority 2008, published 2010)
Where two headings read alike, the source gives them in different places. Where no end group is shown, it is not given here.

Key:
Assay type in all cases: cell-based, human
[1] = test system: A549 cells; test: Epic DMR agonist mode (primary profile, target panning) in A549 cells; conditions: for ligand-induced DMR signal (second ligand panel): FIG. 8: 40 μM pinacidil, 250 μg/ml poly (I:C), 8 μM PMA, 16 μM forskolin
Description: (§1) Epic® wavelength interrogation system (Corning Inc., Corning, N.Y.) was used for whole cell sensing. This system consists of a temperature-control unit, an optical detection unit, and an on-board liquid handling unit with robotics. The detection unit is centered on integrated fiber optics, and enables kinetic measures of cellular responses with a time interval of ±15 sec.
(§2) For biosensor cellular assays, molecule solutions were made by diluting the stored concentrated solutions with the HBSS (1× Hanks balanced salt solution, plus 20 mM Hepes, pH 7.1), and transferred into a 384 well polypropylene molecule storage plate to prepare a molecule source plate. Both molecule and marker source plates were made separately when a two-step assay was performed. In parallel, the cells were washed twice with the HBSS and maintained in 30 μl of the HBSS to prepare a cell assay plate. Both the cell assay plate and the molecule and marker source plate(s) were then incubated in the hotel of the reader system. After ˜1 hr of incubation the baseline wavelengths of all biosensors in the cell assay microplate were recorded and normalized to zero. Afterwards, a 2 to 10 minute continuous recording was carried out to establish a baseline, and to ensure that the cells reached a steady state. Cellular responses were then triggered by pipetting 10 μl of the marker solutions into the cell assay plate using the on-board liquid handler.
First, a panel of ligands targeting GPCRs, each at 10 μM concentration, was chosen, and examined their actions on the A549 cells using DMR measurements with the Epic® system. The ligand panel included the four P2Y agonists ADP, […], UTP and UDP, the adenosine receptor agonist adenosine, the calcium sensing receptor agonist spermine, the histamine receptor agonist histamine, the adrenergic receptor agonist epinephrine, the free fatty acid receptor agonist elaidic acid, the lipoxin receptor agonist lipoxin A4, the bradykinin receptor agonist bradykinin, the adrenodullin receptor agonist adrenodullin, the PAR1 agonist SFLLR-amide, the angiotensin receptor agonist angiotensin, the neuropeptide Y receptor agonist neuropeptide Y, and the PAR2 agonist SLIGKV-amide.
Next, a second ligand panel was chosen, and examined their actions on the A549 cells using DMR measures with the Epic® system. The panel included the protein kinase C activator PMA, the endogenous KATP ion channel activator pinacidil, the adenylyl cyclase activator forskolin, and endogenous Toll-like receptor (TLR) activator poly(I:C).
A DMR index was generated for four ligand molecules. Quiescent A431 and proliferating A549 cells were separately exposed to the ligand molecules for about 1 hr to generate their primary profiles, followed by stimulation with each marker at a fixed concentration (as mentioned in FIGS. 7 and 8) for another 1 hr or so to generate secondary profiles of the molecule against the panels of markers in both types of cells. Next, one or more specific DMR parameters were chosen as a readout for plotting the DMR index of the molecule. For the pinacidil DMR response in A549, the amplitude of the N-DMR (i.e., the amplitude 30 min after stimulation) was chosen. For the poly(I:C) DMR response in A549, the amplitude of the late DMR (i.e., the amplitude 50 min after stimulation) was chosen. For the PMA response in A549, the late DMR amplitude (i.e., the amplitude 50 min after stimulation) was chosen. For the SLIGKV-amide DMR response in A549, the P-DMR amplitude (i.e., the amplitude 20 min after stimulation) was chosen. For the forskolin response in A549 cells, the P-DMR amplitude (i.e., the amplitude 50 min after stimulation) was chosen. For the histamine response in A549, both the early DMR amplitude (i.e., amplitude 10 min after stimulation) and the late response (i.e., the amplitude 30 min after stimulation) were chosen. For the epinephrine response in A431, the P-DMR amplitude (i.e., the amplitude 50 min after stimulation) was chosen.

[2] = test system: quiescent A431 cells; test: Epic label-free DMR two-step assay, antagonist mode: modulation of marker-induced DMR signals in quiescent A431 cells
Procedure: (§3) Cells were typically grown using ˜1 to 2×10^4 cells per well at passage 3 to 15 suspended in 50 μl of the corresponding culture medium in the biosensor microplate, and were cultured at 37° C. under air/5% CO2 for ˜1 day. Except for A431, which was subject to ˜20 hr starvation through continuous culture in the serum-free DMEM, the other cell types were directly assayed without starvation. The confluency for all cells at the time of assays was ˜95% to 100%.
as §1, §2
To study the influence of molecules on a marker-induced response, a second stimulation with the marker at a fixed dose (typically at EC80 or EC100) was applied. The resonant wavelengths of all biosensors in the microplate were normalized again to establish a second baseline, right before the second stimulation. The two stimulations were usually separated by ˜1 hr. All studies were carried out at a controlled temperature (28° C.). At least two independent sets of experiments, each with at least three replicates, were performed. […]
A first panel of markers was contacted with quiescent A431 cells at concentrations close to each of the marker's EC80 or EC100, and DMR measurements were obtained with and EPIC® system. This panel of markers was selected from a library of markers identified in A431 cells using Epic® cellular assays. This panel included epidermal growth factor (EGF), epinephrine, nicotinic acid, and histamine. Each of these markers leads to a wide array of cell signaling. […] Each DMR signal represents an averaged response of 4 replicates.

[3] = test system: A549 cells; test: Epic label-free DMR two-step assay, antagonist mode: modulation of marker-induced DMR signals in A549 cells
Procedure: as §3, §1, §2
To study the influence of molecules on a marker-induced response, a second stimulation with the marker at a fixed dose (typically at EC80 or EC100) was applied. The resonant wavelengths of all biosensors in the microplate were normalized again to establish a second baseline, right before the second stimulation. The two stimulations were usually separated by ˜1 hr. All studies were carried out at a controlled temperature (28° C.). At least two independent sets of experiments, each with at least three replicates, were performed.
A second panel of markers was contacted with A549 cells at concentrations close to each of the marker's EC80 or EC100, and DMR measurements were obtained with and EPIC® system. This panel included poly(I:C), SLIGKV-amide, pinacidil, PMA, histamine, and forskolin. Each of these markers also leads to a wide array of cell signaling. Using Epic® cellular assays in conjunction with chemical biology and cell biology approach similar to the EGFR DMR mentioned above, we have determined the pathway(s) and network interaction(s) that is accounted for each marker-induced DMR signal in A549 cells. The main observations are summarized below. Poly(I:C) is an agonist for endogenous Toll-like receptor(s) in A549, whose activation leads to IKK pathway and AKT pathway. SLIGKV-amide is an agonist for endogenous protease activated receptor subtype 2 (PAR2) in A549, whose activation leads to Gq-, Gi- and G12/13-mediated signaling. Pinacidil is an opener for endogenous ATP-sensitive potassium (KATP) ion channel in A549, whose activation leads to Rho- and JAK-mediated signaling. PMA is an activator for protein kinase C (PKC), whose activation leads to PKC pathway and degranulation. Histamine is a natural agonist for endogenous histamine receptors (dominantly H1R, and possibly H3R), whose activation leads to dual signaling, possibly through Gq and Gi mediated signaling in A549. Forskolin is an activator for adenylyl cyclases, whose activation leads to cAMP-PKA pathway in A549. […] Each DMR signal represents an averaged response of 4 replicates. […]

[4] = A549, each ligand at 10 μM, FIGS. 3A and 3B
[5] = quiescent A431, 32 nM EGF, ligand 10 μM, about 1 hr pretreatment
[6] = 10 μM, score scaled from percent modulation (10% = 1)
[7] = A431, ~1 hr pretreatment with the molecule
[8] = quiescent A431, 10 μM, score scaled from percent modulation (10% = 1)
[9] = ~1 hr pretreatment with the molecule

In the case of Nc1ncnc2c1ncn2[C@@H]1O[C@H](COP(=O)(O)OP(=O)(O)O)[C@@H](O)[C@H]1O [ADP], the “ligand-induced DMR signal (GPCR ligand panel)” value [1, 4] is reported as “robust DMR signals”.

COc1cc2ncnc(Nc3cccc(Cl)c3)c2cc1OC [AG1478] was tested, and the “effect on the EGF response / DMR signal induced by EGF (in words)” value [2, 5] was “almost completely blocked”.

For Nc1ncnc2c1ncn2[C@@H]1O[C@H](COP(=O)(O)OP(=O)(O)OP(=O)(O)O)[C@@H](O)[C@H]1O [AT], the “ligand-induced DMR signal (GPCR ligand panel)” value [1, 4] was “robust DMR signals”.

In the case of C#Cc1cccc(Nc2ncnc3cc(OC)c(OC)cc23)c1 [BML-265], the “effect on the EGF response / DMR signal induced by EGF (in words)” value [2, 5] is reported as “almost completely blocked”.

CNCCNS(=O)(=O)c1cccc2cnccc12 [H-8] was tested, and the “modulation index score, PMA” value [3, 6] was 2.2, the “modulation index score, SLIGKV-amide” value [3, 6] was 3.2 and the “modulation index score, forskolin” value [3, 6] was 2. For the same molecule, the “modulation index score, histamine (early P-DMR)” value [3, 6] was 3.8, the “modulation index score, histamine (late P-DMR)” value [3, 6] was 6.5 and the “modulation index score, pinacidil” value [3, 6] was −7.2. For the same molecule, the “modulation index score, poly(I:C)” value [3, 6] was 1.8, the “effect on the epinephrine response (in words)” value [2, 7] was “less effective at attenuating” and the “effect on the histamine response (in words)” value [2, 7] was “less effective at attenuating”. For the same molecule, the “modulation index score, EGF (N-DMR)” value [2, 8] was −2, the “modulation index score, EGF (P-DMR)” value [2, 8] was 0.3 and the “modulation index score, epinephrine” value [2, 8] was −1.6. The “modulation index score, histamine” value [2, 8] was 1.6 and the “modulation index score, nicotinic acid” value [2, 8] was 1.

O=S(=O)(c1cccc2cnccc12)N1CCCNCC1 [HA1077] was tested, and the “modulation of the PMA-induced DMR response” value ([3]; molecule 10 μM, 8 μM PMA, late DMR amplitude 50 min after stimulation) was “+36%”, the “modulation of the SLIGKV-amide-induced DMR response” value ([3]; molecule 10 μM, 8 μM SLIGKV-amide, P-DMR amplitude 20 min after stimulation) was “+22%” and the “modulation of the histamine-induced DMR response (early P-DMR)” value ([3]; molecule 10 μM, 10 μM histamine, amplitude 10 min after stimulation) was “+26%”. For the same molecule, the “modulation of the histamine-induced DMR response (late P-DMR)” value ([3]; molecule 10 μM, 10 μM histamine, amplitude 30 min after stimulation) was “+55%”, the “modulation of the forskolin-induced DMR response” value ([3]; molecule 10 μM, 16 μM forskolin, P-DMR amplitude 50 min after stimulation) was “+18%” and the “modulation of the poly(I:C)-induced DMR response” value ([3]; molecule 10 μM, 250 μg/ml poly(I:C), late DMR amplitude 50 min after stimulation) was “+18%”. For the same molecule, the “effect on the PMA response (in words)” value [3, 9] was “significantly potentiated”, the “effect on the histamine response (in words)” value [3, 9] was “significantly potentiated” and the “effect on the pinacidil response (in words)” value [3, 9] was “almost completely attenuated”. The “primary profile of the molecule (DMR signal triggered)” value ([1]; A549, 10 μM, about 1 hr) was “N-DMR signal”.

CCCCCCCCCCCCCC(=O)O[C@@H]1[C@@H](C)[C@@]2(O)[C@@H](C=C(CO)C[C@]3(O)C(=O)C(C)=C[C@@H]23)[C@@H]2C(C)(C)[C@]12OC(C)=O [PMA, Phorbol 12-myristate 13-acetate] was tested, and the “ligand-induced DMR signal (second ligand panel)” value ([1]; A549) was “robust DMR signals”.

With N#CC(=C(/N)Sc1ccccc1N)/C(C#N)=C(\N)Sc1ccccc1N [U0126] the “effect on the N-DMR of the EGF DMR signal (in words)” value [2] was “significantly and selectively attenuated” and the “effect on the RP-DMR of the EGF DMR signal (in words)” value [2] was “significantly and selectively attenuated”.

With O=c1ccn([C@@H]2O[C@H](COP(=O)(O)OP(=O)(O)O)[C@@H](O)[C@H]2O)c(=O)[nH]1 [UDP] the “ligand-induced DMR signal (GPCR ligand panel)” value [1, 4] was “robust DMR signals”.

O=c1ccn([C@@H]2O[C@H](COP(=O)(O)OP(=O)(O)OP(=O)(O)O)[C@@H](O)[C@H]2O)c(=O)[nH]1 [UTP] was tested, and the “ligand-induced DMR signal (GPCR ligand panel)” value [1, 4] was “robust DMR signals”.

Nc1ncnc2c1ncn2[C@@H]1O[C@H](CO)[C@@H](O)[C@H]1O [adenosine] was tested, and the “ligand-induced DMR signal (GPCR ligand panel)” value [1, 4] was “robust DMR signals”.

In the case of CCCCCCCC/C=C/CCCCCCCC(=O)O [elaidic acid], the “ligand-induced DMR signal (GPCR ligand panel)” value [1, 4] is reported as “robust DMR signals”.

With CNC[C@H](O)c1ccc(O)c(O)c1 [epinephrine] the “ligand-induced DMR signal (GPCR ligand panel)” value [1] was “robust DMR signals”.

NCCc1c[nH]cn1 [histamine] was tested, and the “ligand-induced DMR signal (GPCR ligand panel)” value [1, 4] was “robust DMR signals”.

For CCCCC[C@H](O)/C=C/C=C\C=C\C=C\[C@@H](O)[C@@H](O)CCCC(=O)O [lipoxin A4], the “ligand-induced DMR signal (GPCR ligand panel)” value [1, 4] was “robust DMR signals”.

With CC(N/C(=N\C#N)Nc1ccncc1)C(C)(C)C (stereo not drawn) [pinacidil] the “ligand-induced DMR signal (second ligand panel)” value ([1]; A549) was “robust DMR signals”.

For CC(=O)c1c(O)c(C)c(O)c(Cc2c(O)c3c(c(C(=O)/C=C/c4ccccc4)c2O)OC(C)(C)C=C3)c1O [rottlerin], the “effect on the N-DMR of the EGF DMR signal (in words)” value [2, 5] was “part of the early N-DMR event” and the “effect on the early P-DMR event of the EGF DMR signal (in words)” value [2, 5] was “specifically caused the truncation”.

NCCCNCCCCNCCCN [spermine] was tested, and the “ligand-induced DMR signal (GPCR ligand panel)” value [1, 4] was “robust DMR signals”.

For SFLLR-amide, the “ligand-induced DMR signal (GPCR ligand panel)” value [1, 4] was “robust DMR signals”.

For SLIGKV-NH2, the “ligand-induced DMR signal (GPCR ligand panel)” value [1, 4] was “robust DMR signals”.

For “adrenodullin: adrenodullin receptor agonist (YRQSMNNFQGLRSFGCRFGTCTVQKLAHQIYQFTDKDKDNVAPRSKISPQGY; ends and bridges not checked; cysteine pairing not given here; UniProt P35318 95-146, looked up)”, the “ligand-induced DMR signal (GPCR ligand panel)” value [1, 4] was “robust DMR signals”.

With angiotensin the “ligand-induced DMR signal (GPCR ligand panel)” value [1, 4] was “robust DMR signals”.

In the case of “neuropeptide Y: neuropeptide Y receptor agonist”, the “ligand-induced DMR signal (GPCR ligand panel)” value [1, 4] is reported as “robust DMR signals”.

poly(I:C) was tested, and the “ligand-induced DMR signal (second ligand panel)” value ([1]; A549) was “robust DMR signals”.
